Test results as given in patent US12617747B2, “Cannabinoid analogs and methods for their preparation” (InMed Pharmaceuticals Inc., priority 2018, dated 2026).

Target: T1, human CB2 receptor (Homo sapiens, UniProt P34972)
T1 construct: HA; expressed in transfected cells
Test: CB2 receptor agonist activity in AtT20 cells stably expressing HA-tagged human CB2 receptors
Format: cell-based
Details: method of Udoh et al. 2019
Text: The activity of 5-fluorocannabichromene (5F-CBC) was studied in AtT20 cells stably expressing HA-tagged human CB1 and CB2 receptors, as described by Udoh, et al. (“Cannabichromene is a cannabinoid CB2 receptor agonist.” British Journal of Pharmacology, 2019, doi: 10.1111/bph.14815).

T1 sequence (P34972 whole entry): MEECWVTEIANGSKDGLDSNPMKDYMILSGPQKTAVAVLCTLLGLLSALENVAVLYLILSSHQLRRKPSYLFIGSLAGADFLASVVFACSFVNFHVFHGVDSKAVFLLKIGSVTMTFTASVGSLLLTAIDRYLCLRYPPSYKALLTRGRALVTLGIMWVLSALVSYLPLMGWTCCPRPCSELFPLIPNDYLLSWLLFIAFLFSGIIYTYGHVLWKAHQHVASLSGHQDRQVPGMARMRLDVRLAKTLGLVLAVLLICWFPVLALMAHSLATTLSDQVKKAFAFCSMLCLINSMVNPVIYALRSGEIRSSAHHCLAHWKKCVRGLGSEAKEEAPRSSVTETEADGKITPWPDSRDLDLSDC

Work on `CC(C)=CCCC1(C)C=Cc2c(O)cc(CCCCCF)cc2O1` (stereo not shown) [5F-CBC, 7-(5-fluoropentyl)-2-methyl-2-(4-methyl-pent-3-enyl)-2H-chromen-5-ol] yielded an EC50 of 2100 nM.
